These results are taken from patent publication US10981932B2, “Macrocyclic indole derivatives” (Bayer Aktiengesellschaft, priority 2016, dated 2021).

The subject of assay [1] is SUDHL5. The assay is described as follows: Induction of caspase-3/7 activity (Caspase-Glo 3/7), SUDHL5. The class given is cell-based. The note with it: Homo sapiens, SU-DHL-5, 3 h, caspase-3/7 induction, SUDHL5 cells, 3 h treatment; median. In outline: (§1)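 DLBCL lines SUDHL5 and SUDHL10 treated with compounds for 3 h at 37 °C; caspase-3/7 activity read by Caspase-Glo 3/7 luminescence. Medium-only background subtracted; EC50 fitted with bottom fixed at 1 and top fixed at the reference compound's maximal induction.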

The test system of assay [2] is SUDHL5. Nature of the assay: Induction of cytotoxicity (CellTiter-Glo, 5 h), SUDHL5. The note with it: Homo sapiens, SU-DHL-5, 5 h, read-out: Cytotox SUDHL5 [M] (median), SUDHL5 cells, cytotoxicity induction, CellTiter-Glo, 5 h incubation, median. In general terms: Cellular ATP, detected with luciferase, serves as a proxy for viable cell number.
Assay [3] deals with SUDHL10. The assay is described as follows: Induction of cytotoxicity (CellTiter-Glo, 5 h), SUDHL10. The note with it: Homo sapiens, SU-DHL10, 5 h, read-out: Cytotox SUDHL10 [M] (median), SUDHL10 cells, cytotoxicity induction, CellTiter-Glo, 5 h incubation, median.
Assay [4] concerns SUDHL10. Nature of the assay: Induction of caspase-3/7 activity (Caspase-Glo 3/7), SUDHL10. The class given is cell-based. The note with it: Homo sapiens, SU-DHL10, 3 h, caspase-3/7 induction, SUDHL10 cells, 3 h treatment; median. In outline: as §1
Assay [5] concerns SUDHL10. The assay is described as follows: Anti-proliferative effect (CellTiter-Glo, 72 h), SUDHL10. The assay is classed as cell-based. The settings on record: Homo sapiens, SU-DHL10, 72 h, SUDHL10 cells, antiproliferation, 72 h incubation, median, read-out: Antiproli SUDHL10 [M] (median). In outline:
(§2)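 72 h compound treatment, 37 °C humidified; CellTiter-Glo added, 10 min incubation, luminescence read; day 0 plate read in parallel for baseline.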

In assay [6] the test system is OPM2. The assay is described as follows: Anti-proliferative effect (CellTiter-Glo, 72 h), OPM2. The assay is classed as cell-based. The note with it: Homo sapiens, OPM-2, 72 h, OPM2 cells, median, read-out: IC50 antiproliferation assay OPM2 [M] (median). Here is the method:
Assessment of the Anti-Proliferative Effect of Compounds in Different Cell Lines
The impact of compounds on the proliferation of different cell lines was assessed using the CellTiter-Glo® Luminescent Cell Viability reagent from Promega (G7573). Of note, SUDHL10 and SUDHL5 (DLBCL), NCI-H929 (Multiple Myeloma), A2780 (ovarian carcinoma) as well as MV-4-11(AML) cells are sensitive to MCL-1 inhibition.
In parallel, cells were plated in a reference (day 0) plate for time zero determination.
Rim wells were excluded. The cells were incubated for 72 h hours in a humidified incubator at 37° C. The day 0 plate was measured by adding 30 μl/well of CTG solution (CellTiter-Glo® Luminescent Cell Viability reagent, Promega G7573) to time zero wells in the reference plate followed by a 10 minutes incubation and luminescence reading at 0.1 ms, using the PHERAstar FS microplate reader (BMG Labtech).
After 72 h incubation, the treated plates were measured in the same way as the day 0 plate mentioned above.

For assay [7], the target named is MCL-1 (Homo sapiens, UniProt Q07820). Nature of the assay: Protein-protein interaction assay MCL-1/Noxa BH3 peptide (MCL-1 assay), TR-FRET. The settings on record: MBP-MCL-1 / Noxa BH3-derived peptide, median. The class given is binding. In outline:
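IC50 came from a 4-parameter fit of the normalized 665/620 nm TR-FRET ratio (anti-MBP Eu-cryptate/streptavidin-XL665). Compounds (0.1 nM–20 μM, duplicates) were preincubated 10 min at 22 °C with 1 nM MBP-MCL-1 in pH 7 Tris/NaCl/KF buffer, then read after 1 h at 22 °C plus overnight at 4 °C.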
In general terms: Time-resolved FRET reads energy transfer from a long-lived donor to a nearby acceptor.

Assay [8] relates to A2780. Nature of the assay: Anti-proliferative effect (CellTiter-Glo, 72 h), A2780. The class given is cell-based. The settings on record: Homo sapiens, A2780, 72 h, A2780 cells, median, read-out: IC50 antiproliferation assay A2780 [M] (median). The essentials: as §2

Bounds are passed on as bounds.

The term EC50 denotes the concentration at which the effect is half-maximal. A high value points to a less potent agent.

Chain of MCL-1 (Q07820 whole entry): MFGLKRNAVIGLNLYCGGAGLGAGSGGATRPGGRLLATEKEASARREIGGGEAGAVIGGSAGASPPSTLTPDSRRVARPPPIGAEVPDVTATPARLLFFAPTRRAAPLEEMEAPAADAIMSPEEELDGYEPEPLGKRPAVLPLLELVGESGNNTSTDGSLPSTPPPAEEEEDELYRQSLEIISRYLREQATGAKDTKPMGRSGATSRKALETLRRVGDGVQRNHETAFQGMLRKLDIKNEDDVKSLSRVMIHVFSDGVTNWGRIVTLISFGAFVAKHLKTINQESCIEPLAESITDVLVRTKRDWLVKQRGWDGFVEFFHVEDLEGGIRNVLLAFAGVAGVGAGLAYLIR

In the case of `Cc1nn(C)c2c1-c1cccc3c(CCCOc4cccc5c4CCCC5)c(C(=O)O)n(c13)CCCOC2` (racemic) [Example 005, (rac)-9,11-dimethyl-1-[3-(5,6,7,8-tetrahydronaphthalen-1-yloxy)propyl]-5,6,8,9-tetrahydro-4H-pyrazolo[4′,3′:8,9][1,5]oxazecino[7,6,5-hi]indole-2-carboxylic Acid], the EC50 in assay [1] and in assay [4] was greater than 33 µM throughout. The IC50 in assay [2] is greater than 3.3e-05 M; in assay [3], greater than 3.3e-05 M; in assay [5], greater than 3.3e-05 M; in assay [6], greater than 3.3e-05 M; in assay [7], 0.066 µM; in assay [8], greater than 3.3e-05 M.

On to `Cc1ccc2cccc(OCCCc3c(C(=O)O)n4c5c(cccc35)-c3c(C)nn(C)c3COCCCC4)c2c1` (racemic) [Example 012, (rac)-1,3-dimethyl-7-{3-[(7-methyl-1-naphthyl)oxy]propyl}-1,10,11,12,13,15-hexahydropyrazolo[4′,3′:9,10][1,6]oxazacycloundecino[8,7,6-hi]indole-8-carboxylic Acid], for which the EC50 in assay [1] and in assay [4] was greater than 33 µM throughout. In addition, the IC50 in assay [2] was 3.14e-05 M; in assay [3], greater than 3.3e-05 M; in assay [5] it was 7.15e-06 M; in assay [6] it was 2.17e-05 M; in assay [7] it was 0.0274 µM; in assay [8], 3.13e-05 M.

For `Cc1cc(OCCCc2c(C(=O)O)n3c4c(cccc24)-c2c(C)nn(C)c2COCCC3)cc(C)c1Cl` (racemic) [Example 013, (rac)-1-[3-(4-chloro-3,5-dimethylphenoxy)propyl]-9,11-dimethyl-5,6,8,9-tetrahydro-4H-pyrazolo[4′,3′:8,9][1,5]oxazecino[7,6,5-hi]indole-2-carboxylic Acid], the EC50 in assay [1] and in assay [4] was greater than 33 µM each time. Besides, the IC50 in assay [2] is greater than 3.3e-05 M; in assay [3], greater than 3.3e-05 M; in assay [5], 4.83e-06 M; in assay [6], greater than 3.3e-05 M; in assay [7], 0.0345 µM; in assay [8], 3.27e-05 M.

For `Cc1nn(C)c2c1-c1cccc3c(CCCOc4ccccc4)c(C(=O)O)n(c13)CCCCOC2` (racemic) [Example 016, (rac)-1,3-dimethyl-7-(3-phenoxypropyl)-1,10,11,12,13,15-hexahydropyrazolo[4′,3′:9,10][1,6]oxazacycloundecino[8,7,6,6-hi]indole-8-carboxylic Acid], the EC50 in assay [1] and in assay [4] was greater than 33 µM each time. For the same molecule, the IC50 in assay [2] was greater than 3.3e-05 M; in assay [3], greater than 3.3e-05 M; in assay [5] it was greater than 3.3e-05 M; in assay [6], greater than 3.3e-05 M; in assay [7], 0.495 µM; in assay [8] it was greater than 3.3e-05 M.

For `COCCn1nc2c(c1CN1CCOCC1)-c1cccc3c(CCCOc4cccc5ccccc45)c(C(=O)O)n(c13)CCCN(C)C2` (racemic) [Example 056, (rac)-10-(2-methoxyethyl)-7-methyl-11-(morpholin-4-ylmethyl)-1-[3-(naphthalen-1-yloxy)propyl]-4,5,6,7,8,10-hexahydropyrazolo[3′,4′:7,8][1,5]diazecino[9,10,1-hi]indole-2-carboxylic Acid], the EC50 in assay [1] and in assay [4] was greater than 33 µM each time. Moreover, the IC50 in assay [2] is greater than 3.3e-05 M; in assay [3], greater than 3.3e-05 M; in assay [5], 2e-05 M; in assay [6] it was greater than 3.3e-05 M; in assay [7], 0.049 µM; in assay [8], greater than 3.3e-05 M.

Turning to `Cn1nc2c(c1CN1CCOCC1)-c1cccc3c(CCCOc4cccc5ccccc45)c(C(=O)O)n(c13)C/C=C\COC2` (racemic) [Example 066, (rac)-(11Z)-2-Methyl-3-(morpholin-4-ylmethyl)-7-[3-(naphthalen-1-yloxy)propyl]-2,10,13,15-tetrahydropyrazolo[4′,3′:9,10][1,6]oxazacycloundecino[8,7,6-hi]indole-8-carboxylic Acid], the EC50 in assay [1] was greater than 33 µM; in assay [4] it was 29 µM. The IC50 in assay [2] is greater than 3.3e-05 M; in assay [3], greater than 3.3e-05 M; in assay [5], 6.96e-06 M; in assay [6], greater than 3.3e-05 M; in assay [7], 0.0285 µM; in assay [8] it was 2.8e-05 M.

`Cc1c2c(nn1C)CN(C)CCCCn1c(C(=O)O)c(CCCOc3cccc4ccccc34)c3cccc-2c31` (racemic) [Example 067, (rac)-2,3,14-trimethyl-7-[3-(naphthalen-1-yloxy)propyl]-10,11,12,13,14,15-hexahydro-2H-pyrazolo[3′,4′:8,9][1,6]diazacycloundecino[10,11,1-hi]indole-8-carboxylic Acid]: the EC50 in assay [1] and in assay [4] was greater than 33 µM in each case. The IC50 in assay [2] was greater than 3.3e-05 M; in assay [3] it was greater than 3.3e-05 M; in assay [5] it was 5.38e-06 M; in assay [6], 1.48e-05 M; in assay [7] it was 0.0221 µM; in assay [8] it was 2.72e-06 M.

With `COc1cc2cc(c1)-c1cccc3c(CCCOc4cccc5c4CCCC5)c(C(=O)O)n(c13)CCCCCO2` (racemic) [Example 116, (rac)-12-Methoxy-1-[3-(5,6,7,8-tetrahydronaphthalen-1-yloxy)propyl]-5,6,7,8-tetrahydro-4H-10,14-(metheno)[1,7]oxazacyclotetradecino[9,8,7-hi]indole-2-carboxylic Acid], the EC50 in assay [1] and in assay [4] was greater than 33 µM each time. Also, the IC50 is greater than 3.3e-05 M in assay [2]; greater than 3.3e-05 M in assay [3]; greater than 3.3e-05 M in assay [5]; 1.79e-05 M in assay [6]; 8.28 µM in assay [7]; 2.21e-05 M in assay [8].

Regarding `Cc1ccc2cc1-c1cccc3c(CCCOc4cccc5ccccc45)c(C(=O)O)n(c13)CCOCCO2` (racemic) [Example 117, (rac)-13-Methyl-1-[3-(naphthalen-1-yloxy)propyl]-4,5,7,8-tetrahydro-10,14-(metheno)[1,4,7]dioxazacyclotetradecino[9,8,7-hi]indole-2-carboxylic Acid], the EC50 in assay [1] and in assay [4] was greater than 33 µM each time. The IC50 is greater than 3.3e-05 M in assay [2]; greater than 3.3e-05 M in assay [3]; greater than 3.3e-05 M in assay [5]; greater than 3.3e-05 M in assay [6]; 0.633 µM in assay [7]; greater than 3.3e-05 M in assay [8].

With `CN1CCCCn2c(C(=O)O)c(CCCOc3cccc4ccccc34)c3cccc(c32)-c2cnn(C)c2C1` (racemic) [Example 127, (rac)-1,14-dimethyl-7-[3-(naphthalen-1-yloxy)propyl]-10,11,12,13,14,15-hexahydro-1H-pyrazolo[3′,4′:8,9][1,6]diazacycloundecino[10,11,1-hi]indole-8-carboxylic Acid], the EC50 in assay [1] and in assay [4] was greater than 33 µM in each case. For the same molecule, the IC50 is greater than 3.3e-05 M in assay [2]; greater than 3.3e-05 M in assay [3]; 9.32e-06 M in assay [5]; greater than 3.3e-05 M in assay [6]; 0.0144 µM in assay [7]; 2.44e-05 M in assay [8].
